Source: patent US5484804A, “Perhydroisoindole derivatives as antagonists of substance P” (Rhone-Poulenc Rorer S.A., priority 1992, dated 1996)

Tests used:
Format in all cases: in vivo
[1] = system: increase in capillary permeability caused by septide (agonist of substance P); test: inhibition of the increase in capillary permeability caused by septide; settings: Cavia porcellus, guinea-pig
Excerpt: The study of some isoindole derivatives of the general formula (I) by the technique of A. Saria et al., Arch.

[2] = system: hypotension induced by substance P; test: antagonism of hypotension induced by substance P; settings: Cavia porcellus, iv; guinea-pig, hypotension induced by i.v. injection of 250 ng/kg of substance P; read-out: ED50, dose which reduces by 50% the hypotension
Description: Injection of substance P in animals causes hypotension. The products studied by the technique of C. A. Maggi et al., J. Auton. […] The ED50, the dose which reduces by 50% the hypotension induced by an i.v. injection of 250 ng/kg of substance P, is determined.

[3] = system: bronchospasm induced by [Pro^9 ] substance P; test: inhibition of bronchospasm induced by [Pro9] substance P; settings: Cavia porcellus, iv; guinea-pig, bronchospasm induced by 3 μg/kg i.v. of [Pro9] substance P; read-out: ED50, dose which reduces by 50% the bronchospasm
Excerpt: Injection of substance P causes a bronchospasm in the animal. The bronchoconstriction induced in vivo in the guinea-pig by injection of substance P or a selective agonist of substance P:. [Pro^9 ] substance P, is studied by the technique of H. Konzett and R. Rosseler, Archiv. Exp. Path. Pharmak., 195, 71-74 (1940). This bronchoconstriction is inhibited by injection of a product according to the invention, which is evidence of an antiasthmatic activity. The ED50, the dose which reduces by 50% the bronchospasm induced by 3 μg/kg i.v. of [Pro^9 ] substance P, is determined. In this technique, the ED50 of the product of Example 1 is 0.7 mg/kg i.v.

[4] = system: formalin pain; test: formalin pain test; settings: Cavia porcellus, po; guinea-pig, administered perorally 1 hour before the test

In the case of COc1ccccc1[C@H](C)C(=O)N1C[C@@H]2[C@H](C1)C(c1ccccc1)(c1ccccc1)CC[C@@]2(O)c1ccccc1OC [Example 1, (3aS,4S,7aS)-7,7-diphenyl-4-(2-methoxyphenyl)-2-[(S)-2-(2methoxyphenyl)propionyl]perhydroisoindol-4-ol], the ED50 ([1]; iv) is reported as 0.04 mg/kg, the ED50 ([1]; po) is reported as 3.5 mg/kg and the ED50 [2] is reported as 0.15 mg/kg. The ED50 [3] was 0.7 mg/kg and the ED50 [4] was 11 mg/kg.
